Test results reported in patent US6951733B2, “Method for testing drug susceptibility of Mycobacterium tuberculosis” (priority 2000, dated 2005).
≈ marks a conversion by molar mass, not a printed value. Like-named read-outs stand apart in the source and are kept apart here.

Legend:
[1] = test system: 55 M. tuberculosis clinical isolates; format: cell-based
[2] = test system: 13 M. tuberculosis pan-susceptible strains; test: MIC determination on HSTB agar, susceptible strains; format: cell-based; conditions: for MIC: Mycobacterium tuberculosis, HSTB agar
[3] = test system: 13 M. tuberculosis pan-susceptible strains; conditions: adopted for 7H11 agar; cited from earlier work
[4] = strains Susceptible by the BACTEC 300 μg/ml
[5] = strains Susceptible by the BACTEC 900 μg/ml

NC(=O)c1cnccn1 [PZA, pyrazinamide]
Number of strains by the agar proportion method, 900 μg/ml Susceptible [1, 4]: 25 | Number of strains by the agar proportion method, 1200 μg/ml Susceptible [1, 4]: 25 | Number of strains by the agar proportion method, 900 μg/ml Susceptible [1, 5]: 26 | Number of strains by the agar proportion method, 1200 μg/ml Susceptible [1, 5]: 27

NNC(=O)c1ccncc1 [INH, isoniazid]
MIC ([2]; 0.2: 13 strains, read-out: MICs (mcg/ml) of INH for 13 Susceptible Strains, HSTB): 0.2 µg/mL (≈ 1.46 µM) | MIC ([2]; all 13 strains, read-out: MIC of INH): 0.2 µg/mL

CO[C@H]1/C=C/O[C@@]2(C)Oc3c(C)c(O)c4c(O)c(c(/C=N/N5CCN(C)CC5)c(O)c4c3C2=O)NC(=O)/C(C)=C\C=C\[C@H](C)[C@H](O)[C@@H](C)[C@@H](O)[C@@H](C)[C@H](OC(C)=O)[C@@H]1C [RMP, rifampin]
critical concentration of RMP [2]: 2.0 µg/mL | critical concentration of RMP [3]: 1.0 µg/mL
